Measurements from patent publication US5607937A, “Piperazides of substituted phenylalanine derivatives as thrombin inhibitors” (priority 1993, dated 1997).

Experiments:
[1] = tested on: coagulation in rat plasma; test: thrombin time in rat plasma after rectal application; format: in vivo
Description: (§1) After rectal administration of the compounds to be tested, the anticoagulant effect was determined in the plasma of experimental animals.

[2] = tested on: coagulation in rat plasma; test: aPTT in rat plasma after rectal application; format: in vivo
Description: as §1

plasmin = plasmin (Homo sapiens, UniProt P00747); test: inhibition of plasmin, dissociation constant Ki
plasmin, sequence (P00747 581-810 limits assumed): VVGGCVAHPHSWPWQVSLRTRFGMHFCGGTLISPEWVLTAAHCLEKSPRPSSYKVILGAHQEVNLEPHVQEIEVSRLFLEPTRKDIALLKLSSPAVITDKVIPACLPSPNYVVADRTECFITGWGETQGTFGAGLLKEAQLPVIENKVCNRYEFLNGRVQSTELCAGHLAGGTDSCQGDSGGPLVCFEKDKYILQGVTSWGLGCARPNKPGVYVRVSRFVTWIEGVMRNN
plasmin, sequence (P00747 97-580 partner limits assumed): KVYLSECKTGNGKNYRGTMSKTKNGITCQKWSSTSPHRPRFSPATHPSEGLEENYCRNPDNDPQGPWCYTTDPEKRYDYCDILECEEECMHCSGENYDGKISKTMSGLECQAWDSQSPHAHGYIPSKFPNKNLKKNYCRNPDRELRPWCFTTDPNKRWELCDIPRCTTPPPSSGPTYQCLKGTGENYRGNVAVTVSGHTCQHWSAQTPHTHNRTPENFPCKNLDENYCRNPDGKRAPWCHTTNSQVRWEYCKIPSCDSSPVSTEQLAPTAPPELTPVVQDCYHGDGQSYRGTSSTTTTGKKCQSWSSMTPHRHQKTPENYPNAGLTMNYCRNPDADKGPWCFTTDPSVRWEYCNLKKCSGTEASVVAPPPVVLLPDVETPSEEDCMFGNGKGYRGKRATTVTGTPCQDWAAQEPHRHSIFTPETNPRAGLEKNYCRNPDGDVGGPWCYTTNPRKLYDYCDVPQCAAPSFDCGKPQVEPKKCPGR

CC(=O)N1CCN(C(=O)[C@H](Cc2cccc(C(=N)N)c2)NS(=O)(=O)c2ccc3ccccc3c2)CC1.Cl [Compound 2, Nα-(2-naphthylsulfonyl)-(L)-3-amidinophenylalanine-4-acetylpiperazide hydrochloride]
Clotting time, Thrombin time ([1]; rectal 5 mg/kg, 0 min): 32 s | Clotting time, Thrombin time ([1]; rectal 5 mg/kg, 30 min): > 300 s | Clotting time, Thrombin time ([1]; rectal 5 mg/kg, 60 min): 224 s | Clotting time, Thrombin time ([1]; rectal 5 mg/kg, 120 min): 176 s | Clotting time, Thrombin time ([1]; rectal 5 mg/kg, 180 min): 107 s | Clotting time, Thrombin time ([1]; rectal 20 mg/kg, 0 min): 64 s | Clotting time, Thrombin time ([1]; rectal 20 mg/kg, 30 min): > 300 s | Clotting time, Thrombin time ([1]; rectal 20 mg/kg, 60 min): > 300 s | Clotting time, Thrombin time ([1]; rectal 20 mg/kg, 120 min): > 300 s | Clotting time, Thrombin time ([1]; rectal 20 mg/kg, 180 min): > 300 s | Clotting time, aPTT ([2]; rectal 5 mg/kg, 0 min): 22.5 s | Clotting time, aPTT ([2]; rectal 5 mg/kg, 30 min): 37 s | Clotting time, aPTT ([2]; rectal 5 mg/kg, 60 min): 33 s | Clotting time, aPTT ([2]; rectal 5 mg/kg, 120 min): 30 s | Clotting time, aPTT ([2]; rectal 5 mg/kg, 180 min): 26.4 s | Clotting time, aPTT ([2]; rectal 20 mg/kg, 0 min): 28 s | Clotting time, aPTT ([2]; rectal 20 mg/kg, 30 min): 120 s | Clotting time, aPTT ([2]; rectal 20 mg/kg, 60 min): 87 s | Clotting time, aPTT ([2]; rectal 20 mg/kg, 120 min): 59 s | Clotting time, aPTT ([2]; rectal 20 mg/kg, 180 min): 50 s | Ki (plasmin): 5.4 µM
